Paper PMC4492579, “Potent and Selective Triazole-Based Inhibitors of the Hypoxia-Inducible Factor Prolyl-Hydroxylases with Activity in the Murine Brain” (PLoS ONE, 2015)
pEC50, pIC50: −log10 of the molar value. Where a name gives a salt, the structure may show the parent alone. Read-outs that look alike come from different tables or passages of the source.

Experiments:
MCF-7 = assay: Quantitative HIF1α MSD immunoassay, MCF-7; format: cell-based; details: Homo sapiens, read-out: HIF1α EC50
Description: Cells were seeded into 96-well cell culture plates (150 μl culture volume) at approximately 60–70% confluency at least 12 h prior to the compound treatment. Half of the culture medium (75 μl/well) were removed and 75 μl/well of medium containing the desired concentrations of compounds were added into cells for 5 h. The cell medium was then removed and the cells were washed once with phosphate buffered saline (PBS), followed by the addition of lysis buffer (20 mM Tris pH 7.4, 450 mM NaCl, 1 mM EDTA, 1 mM EGTA, 0.5% Triton X-100, 1x complete protease inhibitor cocktail and 100 μM DFO). Plates were then left at 4°C with shaking. […] Plates were washed thrice with Tris Wash Buffer, added with 150 μl/well 2X Read Buffer (R92TC, Meso Scale Discovery) before being read with an MSD Sector S600 plate reader (Meso Scale Discovery). Signals generated were normalized to “lysis buffer-only” controls.
To quantify the cellular efficiency of PHD inhibition, we developed an electrochemiluminescence-based assay for the quantification of HIF1α levels using the Meso Scale Discovery (MSD, http://www.mesoscale.com) technology (HIF1α MSD assay), which is based on the capture and detection of HIF1α protein using two specific HIF1α antibodies. […]

JMJD2C (KDM4C) = molecular target: T1, JMJD2C (KDM4C) (Homo sapiens, UniProt Q9H3R0); assay: KDM AlphaScreen assay, JMJD2C
T1 sequence (Q9H3R0 1-1056): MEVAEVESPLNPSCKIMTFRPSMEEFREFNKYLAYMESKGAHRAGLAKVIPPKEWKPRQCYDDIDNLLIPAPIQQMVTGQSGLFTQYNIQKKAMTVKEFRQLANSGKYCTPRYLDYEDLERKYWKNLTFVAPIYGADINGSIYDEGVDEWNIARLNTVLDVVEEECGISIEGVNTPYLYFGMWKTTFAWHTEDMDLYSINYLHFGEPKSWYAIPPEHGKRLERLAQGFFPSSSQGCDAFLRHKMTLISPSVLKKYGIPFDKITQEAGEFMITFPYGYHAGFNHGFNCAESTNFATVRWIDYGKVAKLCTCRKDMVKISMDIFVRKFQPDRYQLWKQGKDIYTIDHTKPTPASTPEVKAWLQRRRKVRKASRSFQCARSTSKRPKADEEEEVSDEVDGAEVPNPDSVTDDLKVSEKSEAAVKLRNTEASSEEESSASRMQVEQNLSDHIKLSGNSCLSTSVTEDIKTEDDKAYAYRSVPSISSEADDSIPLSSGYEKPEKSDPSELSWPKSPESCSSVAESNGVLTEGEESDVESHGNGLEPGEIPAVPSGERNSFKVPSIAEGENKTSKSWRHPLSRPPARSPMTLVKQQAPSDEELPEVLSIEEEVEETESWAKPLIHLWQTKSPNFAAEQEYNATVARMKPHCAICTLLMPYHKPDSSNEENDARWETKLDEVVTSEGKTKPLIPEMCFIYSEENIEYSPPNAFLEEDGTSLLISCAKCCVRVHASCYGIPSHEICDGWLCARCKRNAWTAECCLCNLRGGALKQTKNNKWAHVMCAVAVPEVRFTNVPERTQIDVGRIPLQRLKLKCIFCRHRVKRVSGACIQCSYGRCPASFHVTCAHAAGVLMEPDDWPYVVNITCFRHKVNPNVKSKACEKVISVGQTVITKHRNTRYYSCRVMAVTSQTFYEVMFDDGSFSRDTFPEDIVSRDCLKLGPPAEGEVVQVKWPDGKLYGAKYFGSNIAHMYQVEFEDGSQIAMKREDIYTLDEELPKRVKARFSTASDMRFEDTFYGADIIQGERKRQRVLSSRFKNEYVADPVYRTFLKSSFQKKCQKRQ
Description: Inhibition assays for PHD2 (AlphaScreen) [9], the KDMs (AlphaScreen) [17], BBOX [18] and FTO [19] were carried out as previously described. N-Terminally biotinylated 19-residue human HIF1α CODD peptide ([sequence]) used in the PHD2 inhibition assays was from GL Biochem (Shanghai). IC50 values were calculated using nonlinear regression with normalized dose-response fit using GraphPad Prism 5.

JMJD3 (KDM6B) = JMJD3 (KDM6B) (Homo sapiens, UniProt O15054); assay: KDM AlphaScreen assay, JMJD3
Description: (§1) Inhibition assays for PHD2 (AlphaScreen) [9], the KDMs (AlphaScreen) [17], BBOX [18] and FTO [19] were carried out as previously described. […] IC50 values were calculated using nonlinear regression with normalized dose-response fit using GraphPad Prism 5.

JMJD2E (KDM4E) = molecular target: T2, JMJD2E (KDM4E) (Homo sapiens, UniProt B2RXH2); assay: KDM AlphaScreen assay, JMJD2E
T2 sequence (B2RXH2 1-506): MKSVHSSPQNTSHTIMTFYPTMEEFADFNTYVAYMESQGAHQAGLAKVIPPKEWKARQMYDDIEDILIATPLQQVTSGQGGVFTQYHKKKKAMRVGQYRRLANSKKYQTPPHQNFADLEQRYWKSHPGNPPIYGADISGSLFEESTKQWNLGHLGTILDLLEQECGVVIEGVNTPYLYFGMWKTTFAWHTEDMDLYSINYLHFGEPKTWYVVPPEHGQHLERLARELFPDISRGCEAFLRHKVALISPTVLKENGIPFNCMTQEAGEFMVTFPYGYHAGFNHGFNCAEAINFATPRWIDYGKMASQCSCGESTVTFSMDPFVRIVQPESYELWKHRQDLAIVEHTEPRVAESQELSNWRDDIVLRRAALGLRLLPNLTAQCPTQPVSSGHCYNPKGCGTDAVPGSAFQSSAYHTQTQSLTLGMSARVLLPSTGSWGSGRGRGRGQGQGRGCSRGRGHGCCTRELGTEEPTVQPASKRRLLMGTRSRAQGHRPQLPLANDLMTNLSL
Description: as §1

Chain of JMJD3 (KDM6B) (O15054 whole entry): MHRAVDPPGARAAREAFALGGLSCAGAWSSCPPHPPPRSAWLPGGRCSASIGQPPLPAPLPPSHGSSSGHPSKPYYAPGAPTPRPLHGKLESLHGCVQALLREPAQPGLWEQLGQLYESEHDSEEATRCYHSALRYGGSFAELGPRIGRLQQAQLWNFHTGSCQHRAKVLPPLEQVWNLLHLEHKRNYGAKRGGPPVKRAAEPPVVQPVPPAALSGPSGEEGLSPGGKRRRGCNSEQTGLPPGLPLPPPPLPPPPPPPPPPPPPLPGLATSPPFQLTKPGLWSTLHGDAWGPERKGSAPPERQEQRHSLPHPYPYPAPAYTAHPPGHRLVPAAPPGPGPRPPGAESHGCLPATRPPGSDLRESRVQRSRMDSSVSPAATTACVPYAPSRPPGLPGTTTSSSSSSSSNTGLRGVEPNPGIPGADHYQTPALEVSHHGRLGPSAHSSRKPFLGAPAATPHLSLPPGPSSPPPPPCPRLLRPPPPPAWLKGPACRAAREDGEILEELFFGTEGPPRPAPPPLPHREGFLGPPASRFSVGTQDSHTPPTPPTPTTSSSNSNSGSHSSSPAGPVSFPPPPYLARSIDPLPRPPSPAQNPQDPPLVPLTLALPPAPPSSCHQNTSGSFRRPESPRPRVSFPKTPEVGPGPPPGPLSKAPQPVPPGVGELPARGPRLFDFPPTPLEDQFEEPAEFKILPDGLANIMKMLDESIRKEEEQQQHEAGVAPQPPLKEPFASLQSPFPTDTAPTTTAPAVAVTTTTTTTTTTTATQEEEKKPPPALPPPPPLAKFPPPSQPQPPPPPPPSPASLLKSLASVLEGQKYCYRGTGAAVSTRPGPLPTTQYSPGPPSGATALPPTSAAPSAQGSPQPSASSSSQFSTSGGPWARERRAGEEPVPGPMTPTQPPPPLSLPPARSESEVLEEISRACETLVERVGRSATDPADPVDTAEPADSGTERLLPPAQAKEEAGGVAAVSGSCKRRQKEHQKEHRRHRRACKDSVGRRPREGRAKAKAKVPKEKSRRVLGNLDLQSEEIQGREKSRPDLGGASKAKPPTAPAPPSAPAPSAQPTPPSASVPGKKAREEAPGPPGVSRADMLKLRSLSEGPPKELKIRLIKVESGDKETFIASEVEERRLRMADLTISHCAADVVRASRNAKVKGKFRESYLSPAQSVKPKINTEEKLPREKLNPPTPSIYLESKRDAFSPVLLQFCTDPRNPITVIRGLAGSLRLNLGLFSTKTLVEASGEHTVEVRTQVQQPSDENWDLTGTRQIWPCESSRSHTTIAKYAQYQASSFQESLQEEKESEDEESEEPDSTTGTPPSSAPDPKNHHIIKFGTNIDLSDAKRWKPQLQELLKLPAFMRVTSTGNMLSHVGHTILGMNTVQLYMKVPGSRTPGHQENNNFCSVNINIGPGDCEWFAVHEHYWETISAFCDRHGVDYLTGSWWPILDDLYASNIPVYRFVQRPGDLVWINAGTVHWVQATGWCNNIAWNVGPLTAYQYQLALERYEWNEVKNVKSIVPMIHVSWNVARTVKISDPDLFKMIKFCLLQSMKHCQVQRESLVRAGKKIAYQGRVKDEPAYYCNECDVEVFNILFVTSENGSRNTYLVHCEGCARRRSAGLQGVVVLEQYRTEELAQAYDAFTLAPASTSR

O=C(O)CNC(=O)c1c(O)c2ccccc2n(Cc2ccccc2)c1=O [IOX2]
pEC50 (MCF-7; MCF7, MCF-7, 5 h treatment, MSD assay): 3.94

CC(C)(C)OC(=O)c1ccc(-n2[nH]cc(-n3ccnn3)c2=O)nc1 [IOX4, t-Butyl 6-(5-oxo-4-(1H-1,2,3-triazol-1-yl)-2,5-dihydro-1H-pyrazol-1-yl)nicotinate]
pIC50 (JMJD2C (KDM4C)): < 4.70
pIC50 (JMJD3 (KDM6B)): 5.85
pIC50 (JMJD2E (KDM4E)): < 4.70
pEC50 (MCF-7; MCF7, 5 h): 4.93

O=C(O)c1ccc(-n2[nH]cc(-n3ccnn3)c2=O)nc1 [compound 1, 6-(5-oxo-4-(1H-1,2,3-triazol-1-yl)-2,5-dihydro-1H-pyrazol-1-yl)pyridine-3-carbocylic acid hydrochloride]
pIC50 (JMJD2C (KDM4C)): < 4.70
pIC50 (JMJD3 (KDM6B)): < 4.70
pIC50 (JMJD2E (KDM4E)): < 4.70
